Patent US20240383865A1, “HIGH-ENERGY-VIOLET-ABSORBING VINYLIC MONOMERS” (Alcon Inc., priority 2023, published 2024)
Converted amounts (≈) assume the structure as drawn.

Key:
Assay type in all cases: physicochemical
[1] = Dissolution of benzotriazole monomer in lens formulations; conditions: for Dissolution in Lightstream formulation: formulations 6-1 (UV28) and 6-2 (UV35), mixing at room temperature then 40° C.; for Dissolution in thermally cured formulations: formulations 6-3 (UV28) and 6-4 (UV35), mixed at room temperature 1-2 hours
Protocol: All formulations in the amount of 10 g are mixed at room temperature for 1-2 hours. Following initial mixing, Lightstream formulations (6-1 and 6-2) are mixed for an additional 1-2 hours at 40° C. […] Both benzotriazoles-UV28 and UV35 dissolve in thermally cured formulations (6-3 and 6-4). Room temperature and refrigerated (3° C.) conditions are tested.

[2] = UV/visible absorption spectra of dilute solutions (40 ppm, 1 cm cuvette); conditions: for UV/visible absorption profiles of UV28 and UV35 compared: 40 ppm, FIG. 3
[3] = Solubility of HEVL-absorbing vinylic monomers in 1-propanol
Protocol: This example illustrates the correlation between the melting point and solubility of HEVL-absorbing vinylic monomers of
As anticipated, solubility in 1-propanol is improved, reaching >4.0 mg/ml (Table 1).

[4] = Absorption edge of germanium photoinitiators

Row | SMILES | Dissolution in Lightstream formulation [1] | Dissolution in thermally cured formulations [1] | UV/visible absorption profiles of UV28 and UV35 compared [2] | Solubility in PrOH [3] [µg/mL] | solubility ([3]; organic solvent or mixture, read-out: Solubility in PrOH) [µg/mL] | Absorption edge [4] [nm] | Absorption Peak ([2]; 40 ppm in 1-propanol) [nm]
1 | C=C(C)C(=O)OCCOCCOc1cc(-n2nc3ccc(Cl)cc3n2)c(O)c(C(C)(C)C)c1 [UV35, 2-propenoic acid, 2-methyl-, 2-[2-[3-(5-chloro-2H-benzotriazol-2-yl)-5-(1,1-dimethylethyl)-4-hydroxyphenoxy]ethoxy]ethyl ester] | dissolves completely | dissolve | equivalent | >4000 | > 4000 | – | –
2 | C[CH2][Ge]([CH2]C)([C](=O)c1ccc(OC)cc1)[C](=O)c1ccc(OC)cc1 [BMBDE-Ge, Bis(4-methoxybenzoyl)diethylgermanium] | – | – | – | – | – | 470 | –
3 | CCc1ccccc1[C](=O)[Ge]([C](=O)c1ccccc1CC)([C](=O)c1ccccc1CC)[C](=O)c1ccccc1CC [TEB-Ge, tetrakis(2-ethylbenzoyl)-germanium] | – | – | – | – | – | 490 | –
4 | C=C(C)C(=O)OCCCOc1cc(-n2nc3ccc(Cl)cc3n2)c(O)c(C(C)(C)C)c1 [UV28, 2-{2′-Hydroxy-3′-tert-butyl-5′-[3′-methacryloyloxypropoxy]phenyl}-5-chloro-2H-benzotriazole, reference compound] | does not dissolve | dissolve | equivalent | 1500 (≈ 3.38 mM) | – | – | 364
